This is an account of results in US9701655B2, “Functionalised benzopyran compounds and use thereof” (NOVOGEN LIMITED, priority 2014, dated 2017).

Each structure is given as a SMILES string.

The test system of test [1] is U87-sensitive. Kind of test: Cell viability (SRB or MTT), TMZ-sensitive U87 subclone. The conditions noted are these: 72 h, 72 hours post treatment. Type of test: cell-based. As for the experimental part: (§1) The anti-proliferative activity of compound 2 was also assessed in matched TMZ susceptible (D54-S and U87-S) or resistant (D54-R and […]) cell lines (Hong Kong University, Dr Gilberto Leung). […] SRB tended to overestimate cytotoxicity compared to MTT.

In test [2] the test system is D54-sensitive. Kind of test: Cell viability (SRB or MTT), TMZ-sensitive D54 subclone. It is filed as cell-based. Conditions: 72 h, 72 hours post treatment. As for the experimental part:
as §1

The subject of test [3] is D54-resistant. Kind of test: Cell viability (SRB or MTT), TMZ-resistant D54 subclone. The conditions noted are these: 72 h, 72 hours post treatment. Type of test: cell-based. As for the experimental part:
as §1

Test [4] has as its system TMZ-resistant and sensitive subclones of U87 and D54. Kind of test: Anti-proliferative activity across matched TMZ susceptible and resistant GBM cell lines. It is filed as cell-based. The procedure:
as §1

For test [5], the system named is SK-Mel-28. Kind of test: Proliferation of somatic cancer cells (cell-titre luminescence), SK-Mel-28. It is filed as cell-based. Conditions: Homo sapiens; Melanoma SK-Mel-28, 72 hrs. In short, it runs like this: (§2)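 Seeding densities were pre-set from growth assays; after 24 hrs culture at 37° C. and 5% CO2 the attached cells received 30, 3, 0.3 or 0.03 μM compound. Viability after 72 hrs was measured by cell-titre luminescence, compared against untreated control.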

The test system of test [6] is PC3. Kind of test: Proliferation of somatic cancer cells (cell-titre luminescence), PC3. Type of test: cell-based. The conditions noted are these: Prostate PC3, 72 hrs. An outline of the steps: as §2
Test [7] deals with DU145. In words: Proliferation of somatic cancer cells (cell-titre luminescence), DU145. It is filed as cell-based. The conditions noted are these: Prostate DU145, 72 hrs. An outline of the steps:
as §2

Test [8] concerns MDA-MB-231. Kind of test: Proliferation of somatic cancer cells (cell-titre luminescence), MDA-MB-231. It is filed as cell-based. Conditions: Breast MDA-MB-231, 72 hrs. In short, it runs like this: as §2
The test system of test [9] is A549. Kind of test: Proliferation of somatic cancer cells (cell-titre luminescence), A549. Conditions: Lung (NSCLC) A549, 72 hrs. It is filed as cell-based. An outline of the steps: as §2
The test system of test [10] is MiaPaCa-2. Kind of test: Proliferation of somatic cancer cells (cell-titre luminescence), MiaPaCa-2. Conditions: Homo sapiens, MIA PaCa-2; Pancreatic MiaPaCa-2, 72 hrs. Type of test: cell-based. The procedure:
(§3) The ability of selected compounds to inhibit the proliferation of cancer cells representative of melanoma, non-small cell lung cancer, colorectal cancer, breast cancer (Estogen Receptor negative (ER−ve, TNBC−R−ve, Progesterone Receptor negative and negative for EGFR amplification), prostate cancer, liver cancer, ovarian cancer, pancreatic cancer and brain cancer was studied. A pre-determined number of cells as calculated from cell growth assays for each of the cell lines employed were seeded into their respective culture mediums (using ATCC culture parameters—http://wwvv.atcc.org) and cultured for 24 hrs at 37° C. and 5% CO2 in 96-well culture plates. Once attached, each cell line was then exposed to various concentrations of each respective analogue (30, 3, 0.3 and 0.03 μM), cultured for a further 72 hrs and exposed to cell-titre luminescent reagent (100μ/well) for a further 30 mins). Luminescence was captured using an EnVision multilabel reader and the data for each analogue concentration compared against control. Semi-log plots of Percent of Control versus concentration were prepared and IC50 determined using linear regression analysis. In Table 6, compounds Comp 1, Comp 2 and Comp 3 are comparative compounds having the following structures: […]

Test [11] deals with U87-MG. In words: Proliferation of somatic cancer cells (cell-titre luminescence), U87-MG. It is filed as cell-based. Conditions: Homo sapiens, U-87 MG; Brain U87-MG, 72 hrs. An outline of the steps: as §2
In test [12] the test system is A172. In words: Proliferation of somatic cancer cells (cell-titre luminescence), A172. It is filed as cell-based. The conditions noted are these: Homo sapiens, A 172; Brain A172, 72 hrs. As for the experimental part: (§4) The ability of selected compounds to inhibit the proliferation of cancer cells representative of melanoma, non-small cell lung cancer, colorectal cancer, breast cancer (Estogen Receptor negative (ER−ve, TNBC−R−ve, Progesterone Receptor negative and negative for EGFR amplification), prostate cancer, liver cancer, ovarian cancer, pancreatic cancer and brain cancer was studied. A pre-determined number of cells as calculated from cell growth assays for each of the cell lines employed were seeded into their respective culture mediums (using ATCC culture parameters—http://wwvv.atcc.org) and cultured for 24 hrs at 37° C. and 5% CO2 in 96-well culture plates. Once attached, each cell line was then exposed to various concentrations of each respective analogue (30, 3, 0.3 and 0.03 μM), cultured for a further 72 hrs and exposed to cell-titre luminescent reagent (100μ/well) for a further 30 mins). Luminescence was captured using an EnVision multilabel reader and the data for each analogue concentration compared against control. Semi-log plots of Percent of Control versus concentration were prepared and IC50 determined using linear regression analysis. In Table 6, compounds Comp 1, Comp 2 and Comp 3 are comparative compounds having the following structures:
(§5) Using the same methodology the racemate of compound 2 and its enantiomers were assessed against the A172 glioblastoma and OVCAR-3 ovarian cancer cell lines.

In test [13] the test system is OVCAR-3. In words: Proliferation of somatic cancer cells (cell-titre luminescence), OVCAR-3. The conditions noted are these: Homo sapiens; Ovarian OVCAR-3, 72 hrs. Type of test: cell-based. The procedure:
as §4, §5

Test [14] deals with A2780. In words: Proliferation of somatic cancer cells (cell-titre luminescence), A2780. The conditions noted are these: Homo sapiens; Ovarian A2780, 72 hrs. It is filed as cell-based. The procedure:
as §3

For test [15], the system named is OCSC-2 cells. In words: OCSC-2 proliferation after removal of drug pressure (Incucyte confluence). Conditions: pre-treated 24 hrs with 0.1, 1 and 10 μg/ml, washed, additional 48 hrs in medium without drug. It is filed as cell-based, human. The procedure:
Given the concept that residual cancer progenitor cells within the tumour post-treatment are responsible for tumour relapse, a critical therapeutic strategy to prolong survival is to eradicate those tumour progenitor cells driving relapse. In vitro studies were conducted to determine whether compound 2 was able to inhibit OCSC proliferation once drug pressure was removed. […] Culture plates were immediately placed in the Incucyte system and imaged every 2 hrs. Growth curves were calculated as a measure of cell confluence using an integrated confluence algorithm as a surrogate for cell number to determine proliferation rate.

Test [16] relates to GFP-labeled OCSC2. In words: Co-culture fluorescence microscopy, GFP-labeled OCSC2 stem cells. It is filed as cell-based, human. The conditions noted are these: 1 μg/ml for 48 hrs, recovery 72 hrs. As for the experimental part: GFP-labeled OCSC2 and mCherry-labeled OCC2 cells were established by infecting cells with lentivirus expressing the fluorescent proteins (Craveiro et al. 2013). Co-cultures of GFP+ OCSC2 and mCherry+ OCC2 were treated with 1 μg/ml of compound 2 for 48 hrs and allowed to recover for another 72 hrs. Fluorescence was determined by fluorescence microscopy.

For test [17], the system named is Ovarian cancer stem cell spheroids (OCSC-2). Kind of test: Ovarian cancer stem cell spheroid integrity (microscopy). Type of test: cell-based, human. The conditions noted are these: 24 hrs exposure. As for the experimental part: FIG. 9: Compound 2 destroys ovarian cancer stem cell spheroids. OCSC-2 spheroids were established using standard methodology and exposed to increasing concentration of compound 2 over 24 hrs. A, Control; B. 0.1 μg/ml-24 hr; C, 1 μg/ml-24 hr Spheroid structure was assessed by microscopy.
Ovarian cancer stem cell spheroids were obtained from cultures grown under special conditions that selected for cells with self-renewing potential (Alvero et al., 2009). Briefly, CD44+ cells were incubated in a suspension system consisting of a glass tube in continuous rotation to prevent adherence These cells formed clusters in 48 hrs and compact spheroids in 4 days. Spheroids were then exposed to 0.1 and 1 μg/ml of compound 2 and examined microscopically after 24 hrs.

As to `COc1cc(C2COc3c(ccc(O)c3C)C2c2ccc(O)cc2)cc(OC)c1O` (racemic) [Compound 2, 3-(4-Hydroxy-3,5-dimethoxyphenyl)-4-(4-hydroxyphenyl)-8-methylchroman-7-ol], the IC50 in [1] (MTT) stood at 329 nM; in [1] (SRB) it was 106 nM; in test [2] (MTT), 271 nM; in test [2] (SRB) it was 90 nM; in test [3] (MTT) it was 215 nM; in test [3] (SRB), 92 nM. Further, the IC50 is less than 360 nM in [4] (U87 and D54, TMZ-resistant and sensitive subclones, SRB/MTT, read-out: IC50 values regardless of cell line and TMZ status); 1400 nM in test [5]; 1490 nM in test [6] (Homo sapiens, PC-3, 72 h); 80 nM in test [7]; less than 1000 nM in test [7] (listed as compound 2); 800 nM in test [8]. In addition, the IC50 in test [8] (Homo sapiens, MDA-MB-231, 72 h) is less than 1000 nM; in test [9], 40 nM; in [9] (listed as compound 2), less than 1000 nM; in test [10], 50 nM; in [11], 50 nM; in [12] it was 127 nM. Moreover, the IC50 in [13] turned out to be 63 nM; in [14], 60 nM. Besides, in [4] (U87 and D54), the “anti-proliferative activity against TMZ-resistant versus TMZ-sensitive subclones” value is reported as “equipotent”. Also, the “growth after drug removal” value in test [15] is listed as “failed to enter logarithmic growth”. For the same compound, the “GFP-labeled OCSC2 stem cell numbers” value in test [16] is on record as “markedly reduced”. Further, in test [17] (0.1 μg/ml), the spheroid infrastructure entry is reported as “had started to disintegrate”. In addition, the spheroid structure result in [17] (1 μg/ml) is on record as “almost totally destroyed”.
In the case of `COc1cc(C2COc3cc(O)ccc3C2c2ccc(O)c(F)c2)cc(OC)c1O` (racemic) [Compound 6, 4-(3-Fluoro-4-hydroxyphenyl)-3-(4-hydroxy-3,5-dimethoxyphenyl)chroman-7-ol], the IC50 was greater than 30000 nM in [5]; less than 1000 nM in [6] (Homo sapiens, PC-3, 72 h); 500 nM in test [6]; less than 1000 nM in [7] (Homo sapiens, DU-145, 72 h); 800 nM in [7]; 1700 nM in test [8]. In addition, the IC50 in test [8] (Homo sapiens, MDA-MB-231, 72 h) is less than 2000 nM; in test [9] (Homo sapiens, A549, 72 h) it was less than 1000 nM; in test [9], 700 nM; in test [11], 478 nM; in test [12] it was 193 nM; in [13] it was 63 nM.
Take `COc1cc(C2COc3c(ccc(O)c3C)C2c2ccc(O)c(F)c2)cc(OC)c1O` (racemic) [Compound 9, 4-(3-Fluoro-4-hydroxyphenyl)-3-(4-hydroxy-3,5-dimethoxyphenyl)-8-methylchroman-7-ol]: the IC50 stood at 2700 nM in [5]; 60 nM in test [10]; 50 nM in [11]; 160 nM in [12]; 58 nM in test [13]; 90 nM in [14].
